Fold change (FC), kcat and Activity data for one compound are collected here from ChEMBL document CHEMBL1212711, “Mechanistic and functional insights into fatty acid activation in Mycobacterium tuberculosis” (Nat Chem Biol, 2009).

For assay [1], the system named is Mycobacterium tuberculosis H37Rv. Kind of assay: Selectivity of Mycobacterium tuberculosis H37Rv FAAL28 deletion mutant over wild type FACL1.
Assay [2] shares this test system. Kind of assay: Activity at Mycobacterium tuberculosis H37Rv FAAL28 deletion mutant assessed as conversion of lauroyl-AMP to lauryl-CoA by radio-TLC assay.
Assay [3] shares this test system. Kind of assay: Activity at Mycobacterium tuberculosis H37Rv FACL19 i mutant containing FAAL28 (342-372) residues instead of FACL6 (362-376) residues assessed as acy-CoA formation by radio-TLC assay.
For assay [4] the test system is unchanged. Kind of assay: Activity at Mycobacterium tuberculosis H37Rv FACL19 AS mutant containing 15 amino acid stretch of alanine and serine residues assessed as acy-CoA formation by radio-TLC assay.

Each structure is given as a SMILES string. Activity calls are given as the source filed them. No cut-off for these calls is given here.

What is called kcat is the maximal rate divided by the concentration of active sites.

As to `CC(C)(COP(=O)(O)OP(=O)(O)OC[C@H]1O[C@@H](n2cnc3c(N)ncnc32)[C@H](O)[C@@H]1OP(=O)(O)O)[C@@H](O)C(=O)NCCC(=O)NCCS` [COENZYME_A], in assay [1], the fold change (FC) came to 10. Moreover, the kcat in assay [2] turned out to be 19500 s⁻¹. The outcome in assay [3] and in assay [4] was inactive.
